Two molecules from patent US6737383B1, “Herbicidal oxadiazolidines” (priority 1999, dated 2004) can be followed below.

One test relates to sourgrass. Nature of the test: Test D sourgrass. The format is in vivo, Trichachne insularis. Conditions: Preemergence, 0 to 100 scale. An excerpt: Seeds, tubers, or plant parts of Alexandergrass (Brachiaria plantaginea), bermuda-grass (Cynodon dactylon), common pursiane (Portulaca oleracea), common ragweed (Ambrosia elatior), common groundsel (Senecio vulgaris), dallisgrass (Paspalum dilatatum), goosegrass (Eleusine indica), guineagrass (Panicum maximum), itchgrass (Rottboellia exaltata), Johnson grass (Sorghum halepense), large crabgrass (Digitaria sanguinalis), pitted morningglory (Ipomoea lacunosa), purple nutsedge (Cyperus rotundus), sandbur (Cenchrus echinatus), sourgrass (Trichachne insularis), Spanishneedles (Bidens bipinnata), surinam grass (Brachiaria decumbens) and tall mallow (Malva sylvestris) were planted into greenhouse pots of flats containing greenhouse planting medium. Plant species were grown in separate pots or individual compartments. Preemergence applications were made within one day of planting the seed or plant part.
Test chemicals were formulated in a non-phytotoxic solvent mixture which included a surfactant and applied preemergence to the surface of the pot containing seeds in a sandy loam soil. Untreated control pots and treated pots were placed in the greenhouse for growth and visually evaluated for injury 14 to 21 days after herbicide application. Plant response ratings, summarized in Table C, are based on a 0 to 100 scale where 0 is no injury and 100 is complete control. A dash (−) response means no test result.

Another test has as its system common ragweed. Nature of the test: Test C postemergence common ragweed. In kind it is in vivo, Ambrosia elatior. As to conditions: 0 to 100 scale, 0 no effect, 100 complete control. The procedure:
(§1) Compounds evaluated in this test were formulated in a non-phytotoxic solvent mixture which included a surfactant and applied to plants that were grown for various periods of time before treatment (postemergence application). A mixture of sandy loam soil and greenhouse potting mix in a 60:40 ratio was used for the postemergence test.
(§2) Plantings of these crops and weed species were adjusted to produce plants of appropriate size for the postemergence test. All plant species were grown using normal greenhouse practices. Crop and weed species include arrowleaf sida (Sida rhombifolia), barnyardgrass (Echinochloa crus-galli), cocklebur (Xanthium strumarium), common ragweed (Ambrosia elatior), corn (Zea mays), cotton (Gossypium hirsutum), eastern black nightshade (Solanum ptycanthum), fall panicum (Panicum dichotomiflorum), field bindweed (Convolvulus arvensis), giant foxtail (Setaria faberii), hairy beggarticks (Bidens pilosa), ivyleaf morningglory (Ipomoea hederacea), johnsongrass (Sorghum halepense), ladysthumb smartweed (Polygonum persicaria), lambsquarters (Chenopodium album), large crabgrass (Digitaria sanguinalis), purple nutsedge (Cyperus rotundus), redroot pigweed (Amaranthus retroflexus), soybean (Glycine max), surinam grass (Brachiaria decumbens), velvetleaf (Abutilon theophrasti) and wild poinsettia (Euphorbia heterophylla).
(§3) Treated plants and untreated controls were maintained in a greenhouse for approximately 14, to 21 days, after which all treated plants were compared to untreated controls and visually evaluated. Plant response ratings, summarized in Table C, were based upon a 0 to 100 scale where 0 was no effect and 100 was complete control. A dash response (−) means no test result.

The next test has as its system corn. The test can be described thus: Test C postemergence corn. In kind it is in vivo, Zea mays. As to conditions: 0 to 100 scale, 0 no effect, 100 complete control. The method, then:
as §1, §2, §3

A further test relates to field bindweed. The test can be described thus: Test C postemergence field bindweed. Conditions: 0 to 100 scale, 0 no effect, 100 complete control. The format is in vivo, Convolvulus arvensis. The method in brief: (§4)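 Compounds in a non-phytotoxic solvent mixture with surfactant were sprayed postemergence on greenhouse-grown plants sized for treatment, in 60:40 sandy loam soil:potting mix. After about 14 to 21 days, injury was rated visually against untreated controls on a 0–100 scale (0 no effect, 100 complete control).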

For a further test, the system named is hairy beggarticks. The test can be described thus: Test C postemergence hairy beggarticks. As to conditions: 0 to 100 scale, 0 no effect, 100 complete control. The format is in vivo, Bidens pilosa. The procedure:
as §1, §2, §3

A further test has as its system ivyleaf morningglory. The test can be described thus: Test C postemergence ivyleaf morningglory. As to conditions: 0 to 100 scale, 0 no effect, 100 complete control. In kind it is in vivo, Ipomoea hederacea. The method in brief:
as §4

Another test deals with large crabgrass. The test can be described thus: Test C postemergence large crabgrass. In kind it is in vivo, Digitaria sanguinalis. As to conditions: 0 to 100 scale, 0 no effect, 100 complete control. The method, then: as §1, §2, §3
The test system of another test is purple nutsedge. The test can be described thus: Test C postemergence purple nutsedge. The format is in vivo, Cyperus rotundus. Conditions: 0 to 100 scale, 0 no effect, 100 complete control. The procedure:
as §1, §2, §3

A further test has as its system redroot pigweed. The test can be described thus: Test C postemergence redroot pigweed. In kind it is in vivo, Amaranthus retroflexus. Conditions: 0 to 100 scale, 0 no effect, 100 complete control. The procedure: as §1, §2, §3
The subject of test [1] is Abutilon theophrasti (ABUTH). The test can be described thus: Test F preemergence, alone and in mixture with rimsulfuron, ABUTH. The format is in vivo. Conditions: 21 days after treatment, 0-100 scale. The method, then:
Abutilon theophrasti (ABUTH), Chenopodium album (CHEAL), Amaranthus rudis (AMATA), Setaria faberii (SETFA), Panicum dichotomiflorum (PANDI), and Digitaria sanguinalis (DIGSA) were grown from seed in pots of an artificial potting mixture in a greenhouse. Compounds of the present invention were applied at 70 and 105 g ai/ha preemergence. Rimsulfuron was applied at 8.8 and 17.5 g ai/ha. Mixtures of the compounds of the present invention and rimsulfuron were also applied.
Following application, the plants were maintained by watering as needed. A fertilizer solution of Peter's 20-20-20 (10 pounds/5 gallons of water) plus Sprint 330, a Iron Chelate micronutrient, (113.5 grams/5 gallons of water) was injected into the water with an Anderson fertilizer injection system to provide approximately 219 ppm of nitrogen with each watering. Artificial lighting was used to supplement natural light to produce a 14 hour photoperiod and: an additional one hour light period was used between 1:00 am to 2:00 am for a night interruption. Greenhouse temperatures were targeted for 27° C. in the day and 21° C. at night. At 21 days after treatment, all plants were evaluated for injury as compared to control plants that were sprayed only with non-phytotoxic solvent.
Colby's equation was used to calculate the expected additive herbicidal effect of the mixtures of Compound 21 and the mixture partners listed above. […]

Test [2] has as its system Panicum dichotomiflorum (PANDI). Nature of the test: Test F preemergence, alone and in mixture with rimsulfuron, PANDI. Conditions: 21 days after treatment, 0-100 scale. In kind it is in vivo. The method in brief: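 Greenhouse pot plants treated preemergence with compound at 70 and 105 g ai/ha, rimsulfuron at 8.8 and 17.5 g ai/ha, or mixtures; 27° C day/21° C night, 14 hour photoperiod. Injury scored at 21 days after treatment against solvent-sprayed controls; expected additive effect of mixtures calculated by Colby's equation.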

Where [3] appears, read: Rate 64 g/ha, 0 no injury, 100 complete control.
Where [4] appears, read: Alone: Cmpd. rate 70, Rimsulfuron 0.
Where [5] appears, read: Alone: Cmpd. rate 105, Rimsulfuron 0.

Consider `Cc1ccc(-n2c(=O)on(C(=O)N(c3ccc(F)cc3F)C(C)C)c2=O)c(C)c1` [Compound 24], for which the “Plant response rating, Sourgrass” value in the test on sourgrass (Rate 32 g/ha, 0 no injury, 100 complete control) came to 40; in the test with sourgrass (setting [3]) it was 85; in the test with sourgrass (Rate 250 g/ha), 100; with sourgrass (Rate 500 g/ha), 100. Moreover, the “Sourgrass plant response rating” value in the test with sourgrass (setting [3]) was 100; in the test on sourgrass (Rate 125 g/ha, 0 no injury, 100 complete control), 100.
Turning to `CC(C)N(C(=O)n1oc(=O)n(C(C)C)c1=O)c1ccccc1` [Compound 113], the “Plant response rating Common ragweed” value with common ragweed (Rate 140 g/ha) is recorded as 5; in the test on common ragweed (Rate 280 g/ha), 5; in the test with common ragweed (Rate 1120 g/ha), 20. Also, the “Plant response rating, Corn” value with corn (Rate 140 g/ha) is reported as 0; in the test on corn (Rate 280 g/ha), 40; in the test on corn (Rate 560 g/ha), 45; in the test on corn (Rate 1120 g/ha) it was 60. For the same molecule, the “Plant response rating Field bindweed” value in the test on field bindweed (Rate 140 g/ha) is listed as 0; in the test on field bindweed (Rate 280 g/ha), 0; with field bindweed (Rate 560 g/ha), 50; with field bindweed (Rate 1120 g/ha), 50. Also, the “Plant response rating H. beggarticks” value in the test with hairy beggarticks (Rate 140 g/ha) is 5; in the test with hairy beggarticks (Rate 280 g/ha) it was 30; with hairy beggarticks (Rate 560 g/ha), 30; in the test on hairy beggarticks (Rate 1120 g/ha), 50. The “Plant response rating I. morningglory” value in the test on ivyleaf morningglory (Rate 140 g/ha) worked out at 10; in the test with ivyleaf morningglory (Rate 280 g/ha), 50; in the test on ivyleaf morningglory (Rate 560 g/ha), 50; with ivyleaf morningglory (Rate 1120 g/ha), 50. Further, the “Plant response rating, Large crabgrass” value was found to be 0 with large crabgrass (Rate 140 g/ha), 85 in the test with large crabgrass (Rate 280 g/ha), 95 with large crabgrass (Rate 560 g/ha) and 95 with large crabgrass (Rate 1120 g/ha). For the same molecule, the “Plant response rating, Purple nutsedge” value is listed as 0 in the test on purple nutsedge (Rate 140 g/ha), 10 in the test with purple nutsedge (Rate 280 g/ha), 0 in the test on purple nutsedge (Rate 560 g/ha) and 10 with purple nutsedge (Rate 1120 g/ha). The “Plant response rating, Redroot pigweed” value in the test on redroot pigweed (Rate 140 g/ha) worked out at 0; with redroot pigweed (Rate 280 g/ha), 0; with redroot pigweed (Rate 560 g/ha) it was 0; in the test with redroot pigweed (Rate 1120 g/ha), 90. The “ABUTH Observed” value in [1] (setting [4]) was determined as 45%; in test [1] (setting [5]), 65%. Moreover, the “PANDI Observed” value in test [2] (setting [4]) is 100%; in [2] (setting [5]), 95%.
